Reference: patent publication US20170037028A1 (BAYER PHARMA AKTIENGESELLSCHAFT, priority 2013, published 2017)

These compounds were tested against T1, GLUT1 (Homo sapiens, UniProt P11166) (assay: Indirect measurement of GLUT1 activity by quantification of intracellular ATP levels (glucose induced ATP increase)). Conditions: DLD1 cells; 0.1 mM glucose, 1 μM Rotenone, 15 min; CellTiter-Glo ATP readout; IC50 values standardized to cytochalasin B IC50 values; read-out: IC50 regarding glucose induced ATP increase (GLUT1 inhibition).
T1 sequence (P11166 1-492): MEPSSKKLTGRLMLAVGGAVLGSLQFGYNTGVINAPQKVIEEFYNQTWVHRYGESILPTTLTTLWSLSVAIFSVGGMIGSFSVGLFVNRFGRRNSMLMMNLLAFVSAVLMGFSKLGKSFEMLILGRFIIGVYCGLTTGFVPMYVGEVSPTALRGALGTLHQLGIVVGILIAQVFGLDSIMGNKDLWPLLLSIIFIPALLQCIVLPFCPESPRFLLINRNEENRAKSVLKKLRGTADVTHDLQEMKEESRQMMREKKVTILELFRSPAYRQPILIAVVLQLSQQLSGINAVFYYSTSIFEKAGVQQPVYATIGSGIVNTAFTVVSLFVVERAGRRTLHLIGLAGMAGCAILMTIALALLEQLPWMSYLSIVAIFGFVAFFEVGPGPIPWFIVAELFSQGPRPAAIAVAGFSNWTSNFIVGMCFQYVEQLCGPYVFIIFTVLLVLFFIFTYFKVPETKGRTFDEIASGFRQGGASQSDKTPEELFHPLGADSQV
Format: cell-based
Set-up: endogenous in cells; host or cells: DLD1 or CHO-K1
Outline: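 DLD1 or CHO-K1 cells were starved overnight in glucose-free medium with 1% FCS, then combined with an oxidative phosphorylation inhibitor. GLUT1 activity was read as glucose-induced ATP increase, GLUT2 as fructose-induced. Intracellular ATP was quantified by CellTiter-Glo luminescence.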

| Compound | IC50 [nM] |
| --- | --- |
| Cc1nn(Cc2ccc(F)cc2)c(C)c1NC(=O)c1cc(C(F)(F)F)nc2ccccc12 [Example 181, N-[1-(4-fluorobenzyl)-3,5-dimethyl-1H-pyrazol-4-yl]-2-(trifluoromethyl)quinoline-4-carboxamide] | 93.8 |
| Cc1c(NC(=O)c2cc(C(N)=O)nc3cc(F)ccc23)c(C(F)(F)F)nn1Cc1ccccc1OC(F)(F)F [Example 1703] | 387 |

Same assay, conditions: read-out: IC50 regarding glucose induced ATP increase (GLUT1 inhibition)

| IC50 [nM] | Compound |
| --- | --- |
| 539 | Cc1nn(Cc2ccc(F)cc2)c(C)c1N(Cc1ccccc1)C(=O)c1cc(C(F)(F)F)nc2ccc(Br)cc12 [Example 200] |
| 7.5 | Cc1nn(Cc2ccc(C#N)cc2F)c(C)c1NC(=O)c1cc(C(F)(F)F)nc2ccc(Br)cc12 [Example 1349] |
| 229 | COc1cccc(Cn2nc(C)c(NC(=O)c3cc(OC)nc4ccccc34)c2C)c1 [Example 81, 2-methoxy-N-[1-(3-methoxybenzyl)-3,5-dimethyl-1H-pyrazol-4-yl]quinoline-4-carboxamide] |
| 97.3 | Cc1nn(Cc2ccc(C(=O)NCC(C)(C)CO)cc2)c(C)c1NC(=O)c1cc(C(F)(F)F)nc2ccc(Br)cc12 [Example 1134] |
| 862 | Cc1c(NC(=O)c2cc(C(N)=O)nc3cc(F)ccc23)c(C(F)(F)F)nn1C(C)c1ccccc1 (single isomer, unassigned) [Example 379, (R or S)-7-fluoro-N^4-[5-methyl-1-(1-phenylethyl)-3-(trifluoromethyl)-1H-pyrazol-4-yl]quinoline-2,4-dicarboxamide] |
| 1.8 | Cc1c(NC(=O)c2cc(C(N)=O)nc3cc(F)c(Cl)cc23)c(C(F)(F)F)nn1Cc1cccc(C#N)c1 [Example 1580] |
| 1.3 | Cc1c(NC(=O)c2cc(C(N)=O)nc3cccc(F)c23)c(C(F)(F)F)nn1Cc1ccc(CC#N)cc1 [Example 1593] |
| 30 | Cc1nn(Cc2ccc(F)cc2)c(C)c1NC(=O)c1cc(C2CC2)nc2c(F)cccc12 [Example 40, 2-cyclopropyl-8-fluoro-N-[1-(4-fluorobenzyl)-3,5-dimethyl-1H-pyrazol-4-yl]quinoline-4-carboxamide] |
| 177 | Cc1ccc2nc(C)cc(C(=O)Nc3c(C(F)(F)F)nn(Cc4ccc(F)cc4)c3C)c2c1 [Example 73, N-[1-(4-fluorobenzyl)-5-methyl-3-(trifluoromethyl)-1H-pyrazol-4-yl]-2,6-dimethylquinoline-4-carboxamide] |
| 938 | Cc1ccc2nc(C)cc(C(=O)Nc3c(C)nn(Cc4cccc(OC(F)(F)F)c4)c3C)c2c1 [Example 117, N-{3,5-dimethyl-1-[3-(trifluoromethoxy)benzyl]-1H-pyrazol-4-yl}-2,6-dimethylquinoline-4-carboxamide] |
| 17500 | Cc1cc(C(=O)Nc2c(C)nn(Cc3ccc(F)cc3)c2C)c2ccc(C#N)cc2n1 [Example 1309] |
| 708 | Cc1ccc2nc(C)cc(C(=O)Nc3c(C)nn(Cc4ccccc4C)c3C)c2c1 [Example 111, N-[3,5-dimethyl-1-(2-methylbenzyl)-1H-pyrazol-4-yl]-2,6-dimethylquinoline-4-carboxamide] |
| 1590 | Cc1nn(Cc2ccc(C(F)(F)F)cc2)c(C)c1NC(=O)c1cc(C(F)(F)F)nc2c(Cl)cc(Cl)cc12 [Example 1243] |
| 59.3 | COc1cc(C(=O)Nc2c(C)nn(Cc3ccc(F)c(F)c3)c2C)c2ccccc2n1 [Example 55, N-[1-(3,4-difluorobenzyl)-3,5-dimethyl-1H-pyrazol-4-yl]-2-methoxyquinoline-4-carboxamide] |
| 19.7 | CCS(=O)(=O)N1CCC(Cn2nc(C)c(NC(=O)c3cc(C(N)=O)nc4cc(F)ccc34)c2C)CC1 [Example 1534] |
| 11.7 | COC(=O)Cc1ccc(Cn2nc(C)c(NC(=O)c3cc(C(F)(F)F)nc4ccc(Br)cc34)c2C)cc1 [Example 150, methyl (4-{[4-({[6-bromo-2-(trifluoromethyl)quinolin-4-yl]carbonyl}amino)-3,5-dimethyl-1H-pyrazol-1-yl]methyl}phenyl)acetate] |
| 5.3 | Cc1c(NC(=O)c2cc(C(N)=O)nc3cc(F)ccc23)c(C(F)(F)F)nn1Cc1c(F)cc(C#N)cc1F [Example 395, N^4-[1-(4-cyano-2,6-difluorobenzyl)-5-methyl-3-(trifluoromethyl)-1H-pyrazol-4-yl]-7-fluoroquinoline-2,4-dicarboxamide] |
| 30.5 | Cc1c(NC(=O)c2cc(C(N)=O)nc3cc(F)ccc23)c(C(F)(F)F)nn1Cc1c(F)cccc1F [Example 1627] |
| 16.8 | COc1ccc(CCNC(=O)c2ccc(Cn3nc(C)c(NC(=O)c4cc(C(F)(F)F)nc5ccc(Br)cc45)c3C)cc2)cc1 [Example 1063] |
| 1470 | Cc1nn(Cc2ccc(C(=O)NCC3(CO)COC3)cn2)c(C)c1NC(=O)c1cc(C(F)(F)F)nc2ccc(Br)cc12 [Example 1239] |

| IC50 [nM] | Compound |
| --- | --- |
| 165 | Cc1nn(CC(=O)Nc2cccc(F)c2)c(C)c1NC(=O)c1cc(C(N)=O)nc2ccccc12 [Example 1701] |
| 5.3 | Cc1cccc(Cn2nc(C(F)(F)F)c(NC(=O)c3cc(C(N)=O)nc4ccc(Br)cc34)c2C)c1 [Example 1482] |
| 140 | Cc1nn(Cc2ccc(C(C)(C)C)cc2)c(C)c1NC(=O)c1cc(C(N)=O)nc2cc(F)ccc12 [Example 1383] |
| 4.1 | Cc1nn(Cc2cc(C3CC3)on2)c(C)c1NC(=O)c1cc(C(N)=O)nc2cc(F)ccc12 [Example 418, N^4-{1-[(5-cyclopropyl-1,2-oxazol-3-yl)methyl]-3,5-dimethyl-1H-pyrazol-4-yl}-7-fluoroquinoline-2,4-dicarboxamide] |
| 3.6 | Cc1c(NC(=O)c2cc(C(N)=O)nc3ccccc23)c(C(F)(F)F)nn1Cc1ccccc1C#N [Example 271, N^4-[1-(2-cyanobenzyl)-5-methyl-3-(trifluoromethyl)-1H-pyrazol-4-yl]quinoline-2,4-dicarboxamide] |
| 4.7 | CC(=O)c1ccc(Cn2nc(C(F)(F)F)c(NC(=O)c3cc(C(N)=O)nc4ccccc34)c2C)cc1 [Example 1604] |
| 895 | Cc1c(NC(=O)c2cc(C(N)=O)nc3cc(F)ccc23)c(C(F)(F)F)nn1Cc1ccc(C(=O)NCCN(C)C)cc1 [Example 374, N^4-[1-(4-{[2-(dimethylamino)ethyl]carbamoyl}benzyl)-5-methyl-3-(trifluoromethyl)-1H-pyrazol-4-yl]-7-fluoroquinoline-2,4-dicarboxamide] |
| 26.3 | Cc1c(NC(=O)c2cc(C(F)(F)F)nc3ccc(Br)cc23)c(C#N)nn1Cc1ccc(F)cc1 [Example 1338] |
| 5560 | Cc1nn(Cc2ccc(C(=O)O)cc2)c(C)c1NC(=O)c1cc(C(F)(F)F)nc2ccc(Br)cc12 [Example 132, 4-{[4-({[6-bromo-2-(trifluoromethyl)quinolin-4-yl]carbonyl}amino)-3,5-dimethyl-1H-pyrazol-1-yl]methyl}benzoic acid] |
| 26.5 | Cc1nn(Cc2cnn(C)c2C)c(C)c1NC(=O)c1cc(C(F)(F)F)nc2ccc(Br)cc12 [Example 1342] |
| 83.3 | Cc1ccc2nc(C)cc(C(=O)Nc3c(C)nn(Cc4ccc(C#N)c(F)c4)c3C)c2c1 [Example 1127] |
| 2290 | Cc1nn(CC2CCOCC2)c(C)c1NC(=O)c1cc(C(F)(F)F)nc2cc(F)c(F)cc12 [Example 1262] |
| 128 | Cc1nn(Cc2ccc(C(=O)NCc3ccccc3)cn2)c(C)c1NC(=O)c1cc(C(F)(F)F)nc2ccc(Br)cc12 [Example 1151] |
| 15.3 | Cc1c(NC(=O)c2cc(C(N)=O)nc3ccccc23)c(C(F)(F)F)nn1Cc1c(F)cccc1F [Example 1628] |
| 1020 | Cc1nn(CCOc2ccc(C#N)cc2)c(C)c1NC(=O)c1cc(C(N)=O)nc2ccccc12 [Example 295, N^4-{1-[2-(4-cyanophenoxy)ethyl]-3,5-dimethyl-1H-pyrazol-4-yl}quinoline-2,4-dicarboxamide] |
| 30 | Cc1nn(Cc2ccc(F)cc2F)c(C)c1NC(=O)c1cc(C(F)(F)F)nc2ccc(Br)cc12 [Example 41, 6-bromo-N-[1-(2,4-difluorobenzyl)-3,5-dimethyl-1H-pyrazol-4-yl]-2-(trifluoromethyl)quinoline-4-carboxamide] |
| 78.5 | Cc1c(NC(=O)c2cc(C(F)(F)F)nc3ccc(Br)cc23)c(C(F)(F)F)nn1Cc1ccc(F)cc1F [Example 179, 6-bromo-N-[1-(2,4-difluorobenzyl)-5-methyl-3-(trifluoromethyl)-1H-pyrazol-4-yl]-2-(trifluoromethyl)quinoline-4-carboxamide] |
| 26.9 | Cc1nn(Cc2ccc(S(C)(=N)=O)cc2)c(C)c1NC(=O)c1cc(C(F)(F)F)nc2ccc(Br)cc12 (racemic) [Example 1427] |
| 8 | CC(C)c1nn(Cc2ccc(C#N)cc2)c(C(F)(F)F)c1NC(=O)c1cc(C(N)=O)nc2cc(F)ccc12 [Example 320, N^4-[1-(4-cyanobenzyl)-3-isopropyl-5-(trifluoromethyl)-1H-pyrazol-4-yl]-7-fluoroquinoline-2,4-dicarboxamide] |
| 229 | COCCN(C(=O)c1cc(C(F)(F)F)nc2ccc(Br)cc12)c1c(C)nn(Cc2ccc(F)cc2)c1C [Example 194, 6-bromo-N-[1-(4-fluorobenzyl)-3,5-dimethyl-1H-pyrazol-4-yl]-N-(2-methoxyethyl)-2-(trifluoromethyl)quinoline-4-carboxamide] |
